Data on ten compounds can be found in US9079858B2, “Rock kinase inhibitors” (Amakem NV, priority 2011, dated 2015).

The nature of series [1]: Stability assay in rabbit vitreous humor. The series is classed as in vitro ADME. To be noted: 1 μM in rabbit vitreous; for half-life at 1 μM: rabbit vitreous humor, read-out: t½ Rabbit VH. As for the experimental part:
(§1) Compounds are incubated at a concentration of 1 μM in rabbit aqueous humor (AH) or rabbit vitreous (VH). Samples are taken at fixed time points and the remnant of compound is determined by LC-MS/MS after protein precipitation.

Series [2] can be described thus: Stability assay in rabbit aqueous humor. To be noted: 1 μM in rabbit aqueous humor; for half-life at 1 μM: read-out: t½ Rabbit AH. The series is classed as in vitro ADME. As to the method: as §1
A further series concerns human hepatocytes. The experiment in a line: Stability assay in human hepatocytes. The series is classed as in vitro ADME. To be noted: 1 μM. As to the method:
Compounds are incubated at a concentration of 1 μM with human hepatocytes (2 10^6 cells/ml in buffer solution). At fixed time points (ex: 1, 30, 60 & 120 minutes), an incubation mixture (200 μl) is cooled down on ice and 100 μl of acetonitrile is added. After vortex-mixing, the sample is centrifuged for 5 minutes at 16000 rpm. The remnant of compound in each sample is determined by LC-PDA-MS/MS analysis and half-life of the compound is subsequently calculated. Formation of the acid metabolite resulting from ester hydrolysis can be performed simultaneously. Peak areas for appearance of the acid are first recorded, and the corresponding concentrations are then back-calculated from calibration curve.
When evaluated under such conditions, compounds of the invention are rapidly degraded in the corresponding acid (primary metabolite).

A short description of series [3]: Pharmacokinetics after intravenous and oral administration in mice. The series is classed as in vivo, male CD-1 mice. As to the method:
The bioavailability of compound 1 was evaluated after intravenous and oral dosing in male CD-1 mice. The compound was dosed at 0.1 mg/kg intravenously and 1 mg/kg orally. Plasma levels were determined by LC-MS/MS and pharmacokinetic parameters were estimated by a non-compartmental model using WinNonlin v5.2.1 software.

With `COC(=O)c1ccc(NC(=O)c2cccc(-c3cc(C(=O)Nc4ccncc4F)ccc3CN)c2)cc1F` [Compound 3, methyl 4-({3-[2-(aminomethyl)-5-[(3-fluoropyridin-4-yl)carbamoyl]phenyl]phenyl}amido)-2-fluorobenzoate], the “t½ Rabbit VH” value in series [1] is over 1 h. For the same compound, the “t½ Rabbit AH” value in series [2] was over 1 h.
On to `COC(=O)c1ccc(C(=O)Nc2cccc(-c3cc(C(=O)Nc4ccncc4F)ccc3CN)c2)nc1` [Compound 8, methyl 6-({3-[2-(aminomethyl)-5-[(3-fluoropyridin-4-yl)carbamoyl]phenyl]phenyl}carbamoyl)pyridine-3-carboxylate], for which the half-life at 1 μM in series [1] and in series [2] was over 1 h throughout.
Regarding `COC(=O)c1ccc(NC(=O)c2cccc(-c3cc(C(=O)Nc4ccncc4F)ccc3CN)c2)c(F)c1` [Compound 2, methyl 4-({3-[2-(aminomethyl)-5-[(3-fluoropyridin-4-yl)carbamoyl]phenyl]phenyl}amido)-3-fluorobenzoate], the “t½ Rabbit VH” value in series [1] was over 1 h. The “t½ Rabbit AH” value in series [2] was over 1 h.
On to `NCc1ccc(C(=O)Nc2ccncc2F)cc1-c1cccc(C(=O)Nc2ccc(C(=O)OCC3CCCO3)cc2)c1` (stereo not drawn) [Compound 10, oxolan-2-ylmethyl 4-({3-[2-(aminomethyl)-5-[(3-fluoropyridin-4-yl)carbamoyl]phenyl]phenyl}amido)benzoate], for which the “t½ Rabbit VH” value in series [1] is over 1 h. Moreover, the “t½ Rabbit AH” value in series [2] was over 1 h.
As to `CCCOC(=O)c1ccc(NC(=O)c2cccc(-c3cc(C(=O)Nc4ccncc4F)ccc3CN)c2)cc1C` [Compound 6, propyl 4-({3-[2-(aminomethyl)-5-[(3-fluoropyridin-4-yl)carbamoyl]phenyl]phenyl}amido)-2-methylbenzoate], in series [1], the “t½ Rabbit VH” value is over 1 h. Besides, the “t½ Rabbit AH” value in series [2] was over 1 h.
`COCCOC(=O)c1ccc(NC(=O)c2cccc(-c3cc(C(=O)Nc4ccncc4F)ccc3CN)c2)cc1` [Compound 9, 2-methoxyethyl 4-({3-[2-(aminomethyl)-5-[(3-fluoropyridin-4-yl)carbamoyl]phenyl]phenyl}amido)benzoate]: the “t½ Rabbit VH” value in series [1] was over 1 h. Moreover, the “t½ Rabbit AH” value in series [2] is over 1 h.
Consider `CCCOC(=O)c1ccc(NC(=O)c2cccc(-c3cc(C(=O)Nc4ccncc4F)ccc3CN)c2)c(F)c1` [Compound 4, propyl 4-({3-[2-(aminomethyl)-5-[(3-fluoropyridin-4-yl)carbamoyl]phenyl]phenyl}amido)-3-fluorobenzoate], for which the “t½ Rabbit VH” value in series [1] is over 1 h. Moreover, in series [2], the “t½ Rabbit AH” value is over 1 h.
With `COC(=O)c1ccc(NC(=O)c2cccc(-c3cc(C(=O)Nc4ccncc4F)ccc3CN)c2)cc1` [Compound 1, methyl 4-({3-[2-(aminomethyl)-5-[(3-fluoropyridin-4-yl)carbamoyl]phenyl]phenyl}amido)benzoate], in the series on human hepatocytes, the “t1/2 in human hepatocytes” value is 0.233 h. The “% remaining” value is 100.0% in the series on human hepatocytes (time 1 min), 16.0 +/− 0.4% in the series on human hepatocytes (time 30 min), 4.8 +/− 0.1% with human hepatocytes (time 60 min) and 2.4 +/− 1.3% in the series with human hepatocytes (time 120 min). For the same compound, the “AUClast (intravenous exposure)” value in series [3] (intravenous 0.1 mg/kg) stood at 4.82 ± 0.276 ng·h/mL. The clearance in series [3] (intravenous 0.1 mg/kg) is 257 mL/min/kg. This compound also gave a volume of distribution in series [3] (intravenous 0.1 mg/kg) of 100 L/kg. The highest concentration (Cmax) in series [3] (intravenous 0.1 mg/kg, mouse plasma) is 16.3 ng/mL; in series [3] (oral 1 mg/kg), 22.4 ± 22 ng/mL. Moreover, in series [3] (mice, intravenous and oral), the “metabolism and excretion in words” value was “rapidly metabolized and excreted from the body very rapidly”. This compound registered an AUClast in series [3] (oral 1 mg/kg) of 6.20 ± 5.50 ng·h/mL. For the same compound, in series [3] (oral 1 mg/kg vs intravenous 0.1 mg/kg), the percent oral bioavailability is on record as 12.9%. Moreover, in series [1], the “t½ Rabbit VH” value is over 1 h. Also, the “t½ Rabbit AH” value in series [2] is over 1 h.
On to `COC(=O)c1ccc(NC(=O)c2cccc(-c3cc(C(=O)Nc4ccncc4F)ccc3CN)c2)cc1C` [Compound 5, methyl 4-({3-[2-(aminomethyl)-5-[(3-fluoropyridin-4-yl)carbamoyl]phenyl]phenyl}amido)-2-methylbenzoate], for which the “t½ Rabbit VH” value in series [1] is over 1 h. Moreover, the “t½ Rabbit AH” value in series [2] is over 1 h.
For `COC(=O)c1ccc(C(=O)Nc2cccc(-c3cc(C(=O)Nc4ccncc4F)ccc3CN)c2)cc1` [Compound 7, methyl 4-({3-[2-(aminomethyl)-5-[(3-fluoropyridin-4-yl)carbamoyl]phenyl]phenyl}carbamoyl)benzoate], the half-life at 1 μM in series [1] and in series [2] was over 1 h throughout.
